According to ChEMBL document CHEMBL5357021, “Novel Triazolopyridine-Based BRD4 Inhibitors as Potent HIV-1 Latency Reversing Agents” (ACS Med Chem Lett, 2024):
Activity calls are given as the source filed them. The rule behind the calls is not given here.

Assays:
[1] = test system: Human immunodeficiency virus 1; experiment: Reversal of HIV-1 latency in CD4+ T-lymphoid J-Lat cells contains HIV-1 long terminal repeats (LTR)-Tat-GFP assessed as reactivation measured after 48 hrs by flow cytometry; format: functional, organism-based; details: Human immunodeficiency virus 1, J-Lat 10.6, 48 h
[2] = Cytotoxicity against human non-infected J-Lat A10.6 cells assessed as cell death by CCK8 assay; format: toxicity, cell-based, J-Lat 10.6
PBMC [3] = experiment: Immune hyper-activation in human PBMC cells assessed as CD25 expression at 10 uM measured after 48 hrs by flow cytometry; format: toxicity, cell-based
PBMC [4] = experiment: Immune hyper-activation in human PBMC cells assessed as CD69 expression at 10 uM measured after 48 hrs by flow cytometry; format: toxicity, cell-based
PBMC [5] = experiment: Immune hyper-activation in human PBMC cells assessed as HLA-DR expression at 10 uM measured after 48 hrs by flow cytometry; format: toxicity, cell-based
[6] = target: Bromodomain-containing protein 4 (Homo sapiens) (UniProt O60885); experiment: Inhibition of BRD4 phosphorylation in human J-Lat A10.6 cells contains HIV-1 long terminal repeats (LTR)-Tat-GFP at 2 to 50 uM measured after 24 hrs by Western blotting analysis; format: cell-based; details: J-Lat 10.6, dose 2-50 µM
[7] = target: Bromodomain-containing protein 4 (Homo sapiens) (UniProt O60885); experiment: Inhibition of human BRD4 in J-lat 10.6 cells contains HIV-1 long terminal repeats (LTR)-Tat-GFP assessed as cyclin T1 expression at 2 to 50 uM measured after 24 hrs by Western blot analysis; format: cell-based; details: dose 2-50 µM
[8] = target: Bromodomain-containing protein 4 (Homo sapiens) (UniProt O60885); experiment: Inhibition of human BRD4 in J-lat 10.6 cells contains HIV-1 long terminal repeats (LTR)-Tat-GFP assessed as CDK9 expression at 2 to 50 uM measured after 24 hrs by Western blot analysis; format: cell-based; details: dose 2-50 µM
[9] = target: Bromodomain-containing protein 4 (Homo sapiens) (UniProt O60885); experiment: Inhibition of human BRD4 in J-lat 10.6 cells contains HIV-1 long terminal repeats (LTR)-Tat-GFP assessed as phosphorylated CDK9 expression at 2 to 50 uM measured after 24 hrs by Western blot analysis; format: cell-based; details: dose 2-50 µM
[10] = target: Bromodomain-containing protein 4 (Homo sapiens) (UniProt O60885); experiment: Inhibition of human BRD4 recruitment in J-Lat A10.6 cells contains HIV-1 long terminal repeats (LTR) assessed as reduction of BRD4 and HIV-1 LTR interaction at 10 uM incubated for 6 hrs by CHIP assay; format: cell-based; details: J-Lat 10.6
[11] = target: Bromodomain-containing protein 4 (Homo sapiens) (UniProt O60885); experiment: Inhibition of BRD4 in human J-Lat 10.6 cells contains HIV-1 long terminal repeats (LTR)-Tat-GFP assessed as increased CDK9 enrichment in LTR at 10 uM incubated for 6 hrs by ChiP assay; format: cell-based
[12] = target: Bromodomain-containing protein 4 (Homo sapiens) (UniProt O60885); experiment: Inhibition of BRD4 in human J-Lat 10.6 cells contains HIV-1 long terminal repeats (LTR)-Tat-GFP assessed as increased RNA pol II enrichment in LTR at 10 uM incubated for 6 hrs by ChiP assay; format: cell-based
[13] = test system: Human immunodeficiency virus 1; experiment: Synergistic reversal of HIV-1 latency in human J-Lat 10.6 cells contains HIV-1 long terminal repeats (LTR)-Tat-GFP assessed as increase in GFP-positive cells by measuring combination index at 10 uM incubated for 48 hrs in presence of Prostratin by flow cytometry; format: functional
[14] = Synergistic reversal of HIV-1 latency in human J-Lat 10.6 cells contains HIV-1 long terminal repeats (LTR)-Tat-GFP assessed as increase in GFP-positive cells by measuring combination index at 10 uM incubated for 48 hrs in presence of N1-hydroxy-N8-phenyloctanediamide by flow cytometry; format: functional, Human immunodeficiency virus 1
J-Lat 10.6 [15] = experiment: Reversal of HIV-1 latency in human J-Lat10.6 cells contains HIV-1 long terminal repeats (LTR)-Tat-GFP assessed as reactivation measured at 10 uM after 48 hrs in presence of raltegravir by flow cytometry; format: functional, cell-based; details: Human immunodeficiency virus 1
J-Lat 10.6 [16] = experiment: Reversal of HIV-1 latency in human J-Lat10.6 cells contains HIV-1 long terminal repeats (LTR)-Tat-GFP assessed as reactivation measured at 10 uM after 48 hrs in presence of Efavirenz by flow cytometry; format: functional, cell-based; details: Human immunodeficiency virus 1
J-Lat 10.6 [17] = experiment: Reversal of HIV-1 latency in human J-Lat10.6 cells contains HIV-1 long terminal repeats (LTR)-Tat-GFP assessed as reactivation measured at 10 uM after 48 hrs in presence of darunavir by flow cytometry; format: functional, cell-based; details: Human immunodeficiency virus 1
[18] = test system: Human immunodeficiency virus 1; experiment: Reversal of HIV-1 latency in ACH-2 cell line contains complete HIV-1 provirus assessed as reactivation by measuring HIV-1 p24 antigen expression 5 uM measured after 48 hrs by ELISA; format: functional, organism-based
PBMC [19] = experiment: Cytotoxicity against human PBMC cells assessed as cell viability measured after 48 hrs by MTT assay; format: toxicity, cell-based
[20] = Cytotoxicity against human J-Lat A10.6 cells infected with HIV-1 assessed as cell viability measured after 48 hrs by MTT assay; format: toxicity, cell-based; details: j-lat 10.6, 48 h
ACH-2 cell line = experiment: Cytotoxicity against human ACH-2 cell line cells infected with HIV-1 assessed as cell viability measured after 48 hrs by MTT assay; format: toxicity, cell-based; details: ach-2, 48 h
[21] = Cytotoxicity against human OM10.1 cells infected with HIV-1 assessed as cell viability measured after 48 hrs by MTT assay; format: toxicity, cell-based; details: om10.1, 48 h
[22] = target: Bromodomain-containing protein 4 (Homo sapiens) (UniProt O60885); experiment: Inhibition of BRD4 BD1 domain (unknown origin) at 1 uM by HTRF assay
[23] = target: Bromodomain-containing protein 4 (Homo sapiens) (UniProt O60885); experiment: Inhibition of BRD4 BD2 domain (unknown origin) at 1 uM by HTRF assay
[24] = Effect on CXCR4 expression in human PBMC cells at 10 uM incubated for 48 hrs by flow cytometry; format: toxicity, cell-based
[25] = Effect on CXCR5 expression in human PBMC cells at 10 uM incubated for 48 hrs by flow cytometry; format: toxicity, cell-based
PBMC [26] = experiment: Effect on CXCR4 expression in human PBMC cells at 1 uM incubated for 48 hrs by flow cytometry; format: functional, cell-based
PBMC [27] = experiment: Effect on CXCR5 expression in human PBMC cells at 1 uM incubated for 48 hrs by flow cytometry; format: functional, cell-based

EC50 [1]: 1600 nM
inhibition [6]: Active
inhibition [7]: inactive
inhibition [8]: inactive
inhibition [9]: Active
inhibition [10]: Active
inhibition [11]: Active
inhibition [12]: Active
inhibition [22]: Active
inhibition [23]: Active
Compound: Cc1nnc2ccc(-c3cc(NS(=O)(=O)c4ccc(F)cc4)ccc3Oc3ccc(F)cc3F)cn12
CC50 [2]: > 50000 nM
Activity (PBMC [3]): Non-Toxic
Activity (PBMC [4]): Non-Toxic
Activity (PBMC [5]): Non-Toxic
CI [13]: 0.1
CI [14]: 0.1
Activity (J-Lat 10.6 [15]): Active
Activity (J-Lat 10.6 [16]): Active
Activity (J-Lat 10.6 [17]): Active
Activity [18]: Active
Activity (PBMC [19]): Non-Toxic
Activity [20]: Non-Toxic
Activity (ACH-2 cell line): Non-Toxic
Activity [21]: Non-Toxic
Activity [24]: Not Active
Activity [25]: Not Active
Activity (PBMC [26]): inactive
Activity (PBMC [27]): inactive
